The conditions of data set [1]: rabbit model, Cederqvist et al. 1994; cited from earlier work.
Data set [2] has as its system VASP (Ser239 phosphorylation), NO/cyclic GMP signalling in human platelets. In words: Ser239-specific VASP phosphorylation in isolated human platelets (Western blotting). Format: cell-based. The note with it: 5 min exposure, unstimulated and SFLLRN-stimulated platelets, n=3. Here is the method:
FIG. 9: Increases in Ser 239-specific VASP phosphorylation in platelets. Suspensions of isolated human blood platelets were stimulated by either PDNO or nitroglycerine. The platelets were exposed to the NO-donors for 5 min followed by Western immuno blotting for phosphoVASP detection. These experiments were conducted in unstimulated and SFLLRN-stimulated platelets. The PAR-1 agonist was added 2 min after PDNO/nitroglycerine. The bars represent mean value and standard deviation (n=3).
In platelets and vascular smooth muscle cells, the cytoskeleton-binding protein vasodilator-stimulated phosphoprotein (VASP) is a main molecular target for NO/cyclic GMP signalling pathway. Ser239 specific phosphorylation of VASP following NO exposure of platelets is believed to be a pivotal molecular mechanism underlying anti-aggregatory/antithrombotic effects of NO. The effect of PDNO on Ser239-specific VASP phosphorylation was analysed by Western (immuno) blotting.
Aliquots of isolated platelet suspensions were exposed to either PDNO or nitroglyceine for 5 min. This series of experiments were conduced both on resting and SFLLRN-stimulated platelets.
Specifically, NO/cyclic GMP-induced phosphorylation of Ser239 on vasodilator-stimulated phosphoproteins (VASP) was detected by Western blotting. […]
(A western blot detects proteins with antibodies after separation by electrophoresis.)

Data set [3] relates to SFLLRN (PAR-1 agonist) stimulated platelets in human whole blood. In words: Platelet aggregation in human whole blood (impedance, Multiplate aggregometer). Format: cell-based. The note with it: drug added 2 min prior to SFLLRN, impedance 10 min, AUC, n=4. Here is the method: FIG. 8: Platelet aggregation in whole blood. Suspensions of human blood were stimulated by the PAR-1 agonist […] in the absence (open bar) and presence of either PDNO (black bar) or nitroglycerine (grey bar). The NO-donating drugs were introduced to the blood 2 min prior to SFLLRN. Platelet aggregation response was analysed as increases in impedance over a period of 10 min and is expressed as area under the curve. The bars represent mean value and standard deviation (n=4).
Potential anti-thrombotic effect of PDNO in vitro was evaluated by analysing aggregation responses to the thrombin mimetic hexapeptide SFLLRN. […]
Heparinized human or pig blood (0.5 ml) was diluted 1:1 with Krebs-Ringer glucose (KRG) buffer (isotone saline, pH 7.4). […] Platelet aggregation in vitro (human blood) and ex vivo (pig blood) was measured as increase in electrical impedance between two platinum electrodes. […]
In the in vitro experiments, PDNO or nitroglycerine (used as control drug) was introduced 2 min prior to the hexapeptide SFLLRN. […] Aggregation responses were registered during 10 min and expressed as area under curve.
Platelet aggregation in whole blood (human blood with heparin as anticoagulant) was analysed as increases in electrical resistance (impedance changes between two platinum electrodes) using a Multiplate aggregometer.

Data set [4] in a line: Circulation times and in vivo half-life estimation from injections and infusions. The arrangement: species or system pig. Here is the method:
Intraarterial injections in the left CCA and left CFA and central intravenous injections (PDNO 0.5-4 micromol) were used to estimate in vivo half-life of PDNO in anesthetized, instrumented pigs (n=2). Regional blood flow, mean systemic arterial pressure (MAP), end-tidal nitric oxide (ETNO) and arterial blood gases were measured.
In addition, 10 ml of 5% sodium bicarbonate solution was injected at these sites.
Between the local intraarterial infusion routes, intravenous infusions in the central venous catheter at four doses (3, 10, 30 and 100 nmol kg^−1 min^−1, 10 minutes per dose) were given for reference. There was a washout period of 60 minutes between the PDNO administration.
Primary outcome was effects on regional blood flow, systemic blood pressure and end-tidal nitric oxide (ETNO). […]
The median (25-75 percentiles) circulation times from the carotid and femoral intraarterial injection sites were to first exhalation with increased ETNO 13.5 s (12.3-15.4, n=13) s and 13.7 s (12.9-15.2, n=9), respectively, and from the central intravenous injection site 5.0 s (4.3-5.9, n=29) and 5.3 s (3.3-5.8, n=9). The circulation times between the carotid and femoral intraarterial injection sites to the central intravenous injection site were calculated to 8.5 s and 8.4 s as depicted in Table 1 below.

Structures are written as SMILES.

For the compound `CCCCON=O` [butyl nitrite], the “correlation between in vivo generation of NO and effects on blood pressure” value in data set [1] is “significant correlation between the in vivo generation of NO and effects on blood pressure”. As for `O=[N+]([O-])OCC(CO[N+](=O)[O-])O[N+](=O)[O-]` [nitroglycerine, 1,2,3-propanetriol-nitrate], the “Ser239-specific VASP phosphorylation” value in data set [2] is on record as “not nitroglycerine provoked a significant increase in Ser239-specific VASP phosphorylation”. Further, the “correlation between in vivo generation of NO and effects on blood pressure” value in data set [1] is “significant correlation between the in vivo generation of NO and effects on blood pressure”. Also, the “SFLLRN-induced platelet aggregation, whole blood” value in data set [3] was “not nitroglycerine significantly inhibited SFLLRN-induced platelet aggregation”. For the compound `O=C([O-])O.[Na+]` [Sodium bicarbonate], the “Circulation time (median) between intraarterial and intravenous injection site” value in data set [4] (carotid artery and intravenous) was 7.0 s; in data set [4] (femoral artery and intravenous) it was 8.9 s. Turning to `CC(C)CO[N+](=O)[O-]` [isobutyl nitrate], the “correlation between in vivo generation of NO and effects on blood pressure” value in data set [1] was “significant correlation between the in vivo generation of NO and effects on blood pressure”. Consider `CC(C)CON=O` [isobutyl nitrite], for which the “correlation between in vivo generation of NO and effects on blood pressure” value in data set [1] is “significant correlation between the in vivo generation of NO and effects on blood pressure”. For `CCON=O` [ethyl nitrite], in data set [1], the “correlation between in vivo generation of NO and effects on blood pressure” value is “significant correlation between the in vivo generation of NO and effects on blood pressure”.

On to `CC(C)CCON=O` [isoamyl nitrite], for which the “correlation between in vivo generation of NO and effects on blood pressure” value in data set [1] was “significant correlation between the in vivo generation of NO and effects on blood pressure”.
